Values belong to the compound of their own block, whether it stands above or below them.
What was measured:
[1] = test system: giant foxtail (Setaria faberi); assay: Test Example 8: foliar spray, herbicidal activity index; format: in vivo; parameters: key: “0” means that there was no or little difference in the degree of germination or growth between the treated and the untreated tested plants at the time of examination; “10” means that the test plants died complete or their germination or growth was completely inhibited; details: foliar spray 373 liters per hectare, examined after 4 days, index 0-10
Method: (§1) A plastic pot having longer side of 16.5 cm, shorter side of 12 cm and depth of 7 cm was filled with soil and then seeded with large crabgrass (Digitaria sanguinalis), giant foxtail (Setaria faberi) and johnsongrass (Sorghum halepense). These test plants were grown in a greenhouse for 25 days. Then, each of the present compound 2-52 and C was formulated into an emulsifiable concentrate according to Formulation Example 2 and then diluted to the prescribed amount with water containing a spreading agent and the dilution was uniformly sprayed over the foliage of the test plants with a sprayer at a rate of 373 liters per hectare. After the application, the test plants were grown in the greenhouse for 4 days, and the herbicidal activity was examined. (In the Table 14, the test plants are shown as follows.
(§2) Large crabgrass: LC, Giant foxtail: GF, Johnsongrass: J

[2] = test system: johnsongrass (Sorghum halepense); assay: as above; format: in vivo; parameters: key: “0” means that there was no or little difference in the degree of germination or growth between the treated and the untreated tested plants at the time of examination; “10” means that the test plants died complete or their germination or growth was completely inhibited; details: foliar spray 373 liters per hectare, examined after 4 days, index 0-10
Method: as §1, §2

[3] = test system: large crabgrass (Digitaria sanguinalis); assay: as above; format: in vivo; parameters: key: “0” means that there was no or little difference in the degree of germination or growth between the treated and the untreated tested plants at the time of examination; “10” means that the test plants died complete or their germination or growth was completely inhibited; details: foliar spray 373 liters per hectare, examined after 4 days, index 0-10
Method: as §1, §2

[4] = test system: common cocklebur (Xanthium pensylvanicum); assay: Test Example 3: foliar treatment of field; format: in vivo; details: foliar spray, dosage 16 g/ha, 25 days after application
Method: (§3) A plastic pot having longer side of 27 cm, shorter side of 20 cm and depth of 7.5 cm was filled with soil and then seeded with ivyleaf morningglory (Ipomoea hederacea) and common cocklebur (Xanthium pensylvanicum). These test plants were grown in a greenhouse for 10 days. Then, therein, transplanted were common lambsquarters (Chenopodium album), redroot pigweed and giant foxtail (Setaria faberi) which had been seeded and grown for 14 days in a green house in advance. The test plants were further grown in the greenhouse for 8 days. After then, present compound 1-12 was formulated into an emulsifiable concentrate according to Formulation Example 2 and then diluted to the prescribed amount with water containing a spreading agent and the dilution was uniformly sprayed over the foliage of the test plants with a sprayer at a rate of 1000 liters per hectare. After the application, the test plants were grown in the greenhouse for 25 days, and the herbicidal activity was examined.

[5] = test system: common lambsquarters (Chenopodium album); assay: Test Example 3: foliar treatment of field; format: in vivo; details: foliar spray, dosage 16 g/ha, 25 days after application
Method: as §3

[6] = test system: giant foxtail (Setaria faberi); assay: Test Example 3: foliar treatment of field; format: in vivo; details: foliar spray, dosage 16 g/ha, 25 days after application
Method: as §3

[7] = test system: ivyleaf morningglory (Ipomoea hederacea); assay: Test Example 3: foliar treatment of field; format: in vivo; details: foliar spray, dosage 16 g/ha, 25 days after application
Method: as §3

[8] = test system: redroot pigweed; assay: Test Example 3: foliar treatment of field; format: in vivo, Amaranthus retroflexus; details: foliar spray, dosage 16 g/ha, 25 days after application
Method: as §3

[9] = test system: black nightshade (Solanum nigrum); assay: Test Example 4: soil surface treatment of field; format: in vivo; details: soil surface spray, dosage 250 g/ha, 25 days after application
Excerpt: (§4) A plastic pot having longer side of 32 cm, shorter side of 22 cm and depth of 8 cm was filled with soil and then seeded with hemp sesbania (Sesbania exaltata), black nightshade (Solanum nigrum), velvetleaf (Abutilon theophrasti), pale smartweed (Polygonum lapathifolium), common lambsquarters (Chenopodium album) and giant foxtail (Setaria faberi). Then, the present compound 1-12 was formulated into an emulsifiable concentrate according to Formulation Example 2 and then diluted to the prescribed amount with water, and the dilution was uniformly sprayed over the surface of the soil with a sprayer at a rate of 1000 liters per hectare. After the application, the test plants were grown in the greenhouse for 25 days, and the herbicidal activity was examined.

[10] = test system: common lambsquarters (Chenopodium album); assay: Test Example 4: soil surface treatment of field; format: in vivo; details: soil surface spray, dosage 250 g/ha, 25 days after application
Excerpt: as §4

[11] = test system: giant foxtail (Setaria faberi); assay: Test Example 4: soil surface treatment of field; format: in vivo; details: soil surface spray, dosage 250 g/ha, 25 days after application
Excerpt: as §4

[12] = test system: hemp sesbania (Sesbania exaltata); assay: Test Example 4: soil surface treatment of field; format: in vivo; details: soil surface spray, dosage 250 g/ha, 25 days after application
Excerpt: as §4

[13] = test system: pale smartweed (Polygonum lapathifolium); assay: Test Example 4: soil surface treatment of field; format: in vivo; details: soil surface spray, dosage 250 g/ha, 25 days after application
Excerpt: as §4

[14] = test system: velvetleaf (Abutilon theophrasti); assay: Test Example 4: soil surface treatment of field; format: in vivo; details: soil surface spray, dosage 250 g/ha, 25 days after application
Excerpt: as §4

[15] = test system: barnyardgrass (Echinochloa crus-galli); assay: Test Example 5: foliar treatment of field; format: in vivo; details: foliar spray, dosage 16 g/ha, 6 days after application
Method: (§5) A plastic pot having longer side of 27 cm, shorter side of 20 cm and depth of 7.5 cm was filled with soil and then seeded with ivyleaf morningglory (Ipomoea hederacea) and common cocklebur (Xanthium pensylvanicum). Three days after, barnyardgrass (Echinochloa crus-galli) was seeded therein and grown for 7 days in a greenhouse. Then, therein, transplanted were common lambsquarters (Chenopodium album), redroot pigweed and giant foxtail (Setaria faberi) which had been seeded and grown for 14 days in a green house in advance. The test plants were further grown in the greenhouse for 8 days. After then, present compound 7-7 was formulated into an emulsifiable concentrate according to Formulation Example 2 and then diluted to the prescribed amount with water containing a spreading agent and the dilution was uniformly sprayed over the foliage of the test plants with a sprayer at a rate of 1000 liters per hectare. After the application, the test plants were grown in the greenhouse for 6 days, and the herbicidal activity was examined.

[16] = test system: common cocklebur (Xanthium pensylvanicum); assay: Test Example 5: foliar treatment of field; format: in vivo; details: foliar spray, dosage 16 g/ha, 6 days after application
Method: as §5

[17] = test system: common lambsquarters (Chenopodium album); assay: Test Example 5: foliar treatment of field; format: in vivo; details: foliar spray, dosage 16 g/ha, 6 days after application
Method: as §5

[18] = test system: giant foxtail (Setaria faberi); assay: Test Example 5: foliar treatment of field; format: in vivo; details: foliar spray, dosage 16 g/ha, 6 days after application
Method: as §5

[19] = test system: ivyleaf morningglory (Ipomoea hederacea); assay: Test Example 5: foliar treatment of field; format: in vivo; details: foliar spray, dosage 16 g/ha, 6 days after application
Method: as §5

[20] = test system: redroot pigweed; assay: Test Example 5: foliar treatment of field; format: in vivo, Amaranthus retroflexus; details: foliar spray, dosage 16 g/ha, 6 days after application
Method: as §5

SMILES: COC(=O)C(C)Nc1cccnc1Oc1cc(-n2c(=O)cc(C(F)(F)F)n(C)c2=O)c(F)cc1Cl (stereo not drawn) [Compound 2-52, 2-{2-chloro-4-fluoro-5-[3-methyl-2,6-dioxo-4-(trifluoromethyl)-1,2,3,6-tetrahydropyrimidin-1-yl]phenoxy}-3-{1-(methoxycarbonyl)ethylamino}pyridine]
Herbicidal activity GF ([1]; dosage 32 g/ha): 9
Herbicidal activity GF ([1]; dosage 125 g/ha): 10
Herbicidal activity J ([2]; dosage 32 g/ha): 10
Herbicidal activity J ([2]; dosage 125 g/ha): 10
Herbicidal activity LC ([3]; dosage 32 g/ha): 9
Herbicidal activity LC ([3]; dosage 125 g/ha): 10

SMILES: COC(=O)C(C)Oc1cnc(Oc2cc(-n3c(=O)cc(C(F)(F)F)n(C)c3=O)c(F)cc2Cl)nc1 (stereo not drawn) [Compound 1-12, methyl 2-([2-{2-chloro-4-fluoro-5-[3-methyl-2,6-dioxo-4-(trifluoromethyl)-1,2,3,6-tetrahydropyrimidin-1-yl]phenoxy}pyrimidin-5-yl]oxy)propionate]
growth of common cocklebur (herbicidal activity) [4]: completely controlled
growth of common lambsquarters (herbicidal activity) [5]: completely controlled
growth of giant foxtail (herbicidal activity) [6]: completely controlled
growth of ivyleaf morningglory (herbicidal activity) [7]: completely controlled
growth of redroot pigweed (herbicidal activity) [8]: completely controlled
growth of black nightshade (herbicidal activity) [9]: completely controlled
growth of common lambsquarters (herbicidal activity) [10]: completely controlled
growth of giant foxtail (herbicidal activity) [11]: completely controlled
growth of hemp sesbania (herbicidal activity) [12]: completely controlled
growth of pale smartweed (herbicidal activity) [13]: completely controlled
growth of velvetleaf (herbicidal activity) [14]: completely controlled

melting point: 52.2 °C
SMILES: COC(=O)COc1ncccc1Oc1cc(-n2c(=O)cc(C(F)(F)F)n(C)c2=O)c(F)cc1Cl [Compound 7-7, 3-{2-chloro-4-fluoro-5-[3-methyl-2,6-dioxo-4-(trifluoromethyl)-1,2,3,6-tetrahydropyrimidin-1-yl]phenoxy}-2-(methoxycarbonyl)methoxypyridine]
growth of barnyardgrass (herbicidal activity) [15]: completely controlled
growth of common cocklebur (herbicidal activity) [16]: completely controlled
growth of common lambsquarters (herbicidal activity) [17]: completely controlled
growth of giant foxtail (herbicidal activity) [18]: completely controlled
growth of ivyleaf morningglory (herbicidal activity) [19]: completely controlled
growth of redroot pigweed (herbicidal activity) [20]: completely controlled

SMILES: CC(=O)Nc1cccnc1Oc1cc(-n2c(=O)cc(C(F)(F)F)n(N)c2=O)c(F)cc1Cl [C, reference compound]
Herbicidal activity GF ([1]; dosage 32 g/ha): 6
Herbicidal activity GF ([1]; dosage 125 g/ha): 9
Herbicidal activity J ([2]; dosage 32 g/ha): 8
Herbicidal activity J ([2]; dosage 125 g/ha): 10
Herbicidal activity LC ([3]; dosage 32 g/ha): 7
Herbicidal activity LC ([3]; dosage 125 g/ha): 9

From patent US6537948B1, “Uracil compounds and use thereof” (Sumitomo Chemical Company, Limited, priority 2000, dated 2003)
